Numbered stars: 1 amine (or outer) side, 2 acyl side, 3 side chain; on linkers, the order of the positions; unused ones are H or OH. Bridge positions count the residues as written; N and C are the ends. Square brackets hold non-standard residues; d marks the D form. Peptide text beside a SMILES is read from it. tBuAla = CC(C)(C)C[C@H](N)C(=O)O; X1 = O=C(CCC[*:2])[*:1]

This test deals with T1, Oxytocin receptor (Homo sapiens, UniProt P30559).
T1 sequence (P30559 whole entry): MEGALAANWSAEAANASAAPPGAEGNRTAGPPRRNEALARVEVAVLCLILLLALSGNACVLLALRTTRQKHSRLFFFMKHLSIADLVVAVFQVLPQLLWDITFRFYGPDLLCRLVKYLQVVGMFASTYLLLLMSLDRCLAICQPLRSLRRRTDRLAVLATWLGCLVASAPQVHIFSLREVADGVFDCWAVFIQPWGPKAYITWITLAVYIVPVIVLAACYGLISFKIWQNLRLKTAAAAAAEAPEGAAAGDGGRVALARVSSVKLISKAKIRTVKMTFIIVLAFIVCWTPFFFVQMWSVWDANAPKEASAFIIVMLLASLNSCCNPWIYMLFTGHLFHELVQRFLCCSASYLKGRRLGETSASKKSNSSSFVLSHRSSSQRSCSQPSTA
Nature of the test: Agonist activity at human OTR expressed in CHO cells assessed as calcium mobilization measured after 30 mins by Fluo-4-AM dye based FLIPR assay.

On to `CC[C@H](C)[C@@H]1NC(=O)[C@H](Cc2ccc(O)cc2)NC(=O)CCSSC[C@@H](C(=O)N2CCC[C@H]2C(=O)N[C@@H](CC(C)C)C(=O)NNC(N)=O)NC(=O)[C@H](CC(N)=O)NC(=O)[C@H](CCC(N)=O)NC1=O`, for which the EC50 turned out to be 8 pM. In the case of `CC[C@H](C)[C@@H]1NC(=O)[C@H](Cc2ccc(O)cc2)NC(=O)CCCSC[C@@H](C(=O)N2CCC[C@H]2C(=O)N[C@@H](CC(C)(C)C)C(=O)NCC(N)=O)NC(=O)[C@H](CC(N)=O)NC(=O)[C@H](CCC(N)=O)NC1=O` (YIQNCP[tBuAla]G-NH2; linker N-5 via X1), the EC50 is 7 pM.

(Values after BindingDB's records for doi:10.1016/j.bmcl.2017.04.030 (Takeda Pharmaceutical, 2017).)
